In PubChem BioAssay (NCI) one finds TGI data, which are given here for 13 compounds.

Among the test systems are OVCAR-3 ovarian; MDA-N; UO-31 renal; MCF7 breast; OVCAR-8 ovarian; MALME-3M melanoma; HCT-116 colon; A549 NSCLC; IGROV1 ovarian; HCC-2998 colon.
What all share (experiment): NCI tumour cell line growth inhibition, 48 h

Structures are written as SMILES.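 Five compound concentrations were applied to cells in 96-well plates for 48 hours; endpoints were derived by simple linear interpolation of the resulting dose-response curve. TGI: total growth inhibition.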

For the compound `N#CC(Cc1ccccc1)N(CCC1=CCCCC1)C(c1ccccc1)c1ccccc1` (stereo not given), the TGI with OVCAR-3 ovarian, with MDA-N, in the assay with UO-31 renal, in the assay with MCF7 breast, in the assay on OVCAR-8 ovarian and in the assay with MALME-3M melanoma was more than 100 µM in each case. For the same compound, the TGI in the assay on HCT-116 colon, with A549 NSCLC, with IGROV1 ovarian and with HCC-2998 colon was more than 100 µM throughout.

Take `COC(=O)C1=C(C(=O)OC)SC(=C2SCSC3=C2SC(C(=O)OC)=C(C(=O)OC)C32SC3=C(CCCC3)S2)S1`: the TGI in the assay with OVCAR-3 ovarian, in the assay with MDA-N, in the assay with UO-31 renal, in the assay on MCF7 breast, in the assay with OVCAR-8 ovarian and in the assay with MALME-3M melanoma was more than 100 µM in each case. The TGI in the assay with HCT-116 colon, in the assay with A549 NSCLC, in the assay with IGROV1 ovarian and with HCC-2998 colon was more than 100 µM throughout.

For the compound `NC1(c2cc3ccccc3s2)CCCC1`, the TGI with OVCAR-3 ovarian, in the assay on MDA-N, in the assay with UO-31 renal, with MCF7 breast, in the assay on OVCAR-8 ovarian and in the assay on MALME-3M melanoma was more than 100 µM throughout. Further, the TGI was more than 100 µM in the assay on HCT-116 colon, more than 100 µM in the assay on A549 NSCLC, more than 100 µM with IGROV1 ovarian and 46.1 µM with HCC-2998 colon.

`Cc1ccc(-c2csc(=Nc3ccccc3)n2NC(=O)c2ccncc2)cc1`: the TGI with OVCAR-3 ovarian was more than 100 µM; with MDA-N, more than 100 µM; in the assay with UO-31 renal it was more than 100 µM; in the assay with MCF7 breast, more than 100 µM; in the assay on OVCAR-8 ovarian, more than 90.9 µM; with MALME-3M melanoma, more than 100 µM. The TGI with HCT-116 colon, in the assay on A549 NSCLC, with IGROV1 ovarian and with HCC-2998 colon was more than 100 µM throughout.

In the case of `CC(=O)c1c2c(c3ccccc3c1O)O[C@@H]1OCC[C@H]21`, the TGI in the assay with OVCAR-3 ovarian, with MDA-N, with UO-31 renal, with MCF7 breast, in the assay with OVCAR-8 ovarian and with MALME-3M melanoma was more than 100 µM each time. The TGI in the assay with HCT-116 colon, in the assay with A549 NSCLC, in the assay on IGROV1 ovarian and with HCC-2998 colon was more than 100 µM in each case.

For `CCCCCC1=CC(=O)C1(Cl)Cl`, the TGI in the assay on OVCAR-3 ovarian was 27 µM; in the assay on MDA-N it was 28.3 µM; in the assay with UO-31 renal it was 38.2 µM; in the assay with MCF7 breast, 31.6 µM; in the assay with OVCAR-8 ovarian, 34 µM; in the assay with MALME-3M melanoma, 27.4 µM. Besides, the TGI in the assay on HCT-116 colon worked out at 28.4 µM; with A549 NSCLC it was 71.5 µM; in the assay on IGROV1 ovarian, 48 µM; in the assay with HCC-2998 colon it was 27.7 µM.

As to `CC(=O)N1C(C(=O)NC2CCCCC2)CSC1c1ccccc1` (stereo not given), the TGI with OVCAR-3 ovarian, in the assay on MDA-N, in the assay on UO-31 renal, with MCF7 breast, in the assay on OVCAR-8 ovarian and in the assay with MALME-3M melanoma was more than 100 µM in each case. Besides, the TGI in the assay on HCT-116 colon, with A549 NSCLC, with IGROV1 ovarian and in the assay with HCC-2998 colon was more than 100 µM in each case.

With `N#CC(NCc1cccc(CNC(C#N)c2ccccc2)c1)c1ccccc1` (stereo not given), the TGI in the assay on OVCAR-3 ovarian was more than 100 µM; in the assay with MDA-N it was more than 100 µM; in the assay with UO-31 renal it was more than 100 µM; with MCF7 breast it was 56.6 µM; in the assay on OVCAR-8 ovarian it was more than 100 µM; with MALME-3M melanoma, 65.9 µM. In addition, the TGI in the assay with HCT-116 colon was 56.4 µM; in the assay on A549 NSCLC, more than 100 µM; with IGROV1 ovarian, 41.8 µM; with HCC-2998 colon it was 28.1 µM.

With `CCOP(=O)(OCC)C(F)(F)c1ccc(CC(NC(=O)OC(C)(C)C)C(=O)O)cc1` (stereo not given), the TGI with OVCAR-3 ovarian, in the assay on MDA-N, in the assay with UO-31 renal, in the assay on MCF7 breast, with OVCAR-8 ovarian and with MALME-3M melanoma was more than 10 µM each time. Moreover, the TGI with HCT-116 colon, in the assay on A549 NSCLC, in the assay on IGROV1 ovarian and in the assay with HCC-2998 colon was more than 10 µM throughout.

For the compound `C[C@]12CCC3C4=C(CCC3C1CCC2=O)C(=O)[C@H]1O[C@H]1C4=O` (stereo not given in full), the TGI in the assay with OVCAR-3 ovarian was determined as 3.15 µM; in the assay on MDA-N it was 19.4 µM; with UO-31 renal, 5.1 µM; in the assay on MCF7 breast, 4.14 µM; in the assay on OVCAR-8 ovarian, 5.59 µM; in the assay with MALME-3M melanoma, 37.5 µM. Besides, the TGI came to 2.16 µM in the assay on HCT-116 colon, 26.4 µM in the assay with A549 NSCLC, 4.74 µM in the assay on IGROV1 ovarian and 3.3 µM with HCC-2998 colon.

`O=C(/C=C/c1ccc2c(c1)OCO2)c1ccc(O)cc1`: the TGI in the assay with OVCAR-3 ovarian is 28.9 µM; in the assay on MDA-N, 22.9 µM; in the assay on UO-31 renal, 26.2 µM; in the assay with MCF7 breast it was 23.1 µM; in the assay with OVCAR-8 ovarian it was 3.11 µM; in the assay with MALME-3M melanoma, 28.6 µM. Also, the TGI with HCT-116 colon came to 26.2 µM; in the assay on A549 NSCLC, 50.7 µM; with IGROV1 ovarian, 30.2 µM; in the assay on HCC-2998 colon it was 32.1 µM.

With `CCCCOC(=O)Nc1ccc(S(=O)(=O)Nc2ccccc2Cl)cc1`, the TGI in the assay on OVCAR-3 ovarian came out at 44.3 µM; in the assay on MDA-N it was 33.8 µM; with UO-31 renal, 80 µM; in the assay on MCF7 breast, 42.1 µM; in the assay with OVCAR-8 ovarian, 40 µM; in the assay with MALME-3M melanoma, 52.5 µM. The TGI was 41.6 µM in the assay with HCT-116 colon, more than 100 µM in the assay with A549 NSCLC, 49 µM in the assay with IGROV1 ovarian and 27.5 µM with HCC-2998 colon.

In the case of `O=C1CCCCC1CN1CCCCC1` (stereo not given), the TGI with OVCAR-3 ovarian, with MDA-N, in the assay with UO-31 renal, in the assay with MCF7 breast, with OVCAR-8 ovarian and in the assay with MALME-3M melanoma was more than 100 µM each time. Also, the TGI with HCT-116 colon, in the assay with A549 NSCLC, in the assay on IGROV1 ovarian and with HCC-2998 colon was more than 100 µM each time.
